# Measurements published in patent US7211424B1, “Mammalian Subtilisin/kexin isozyme SKI-1: a proprotein convertase with a unique cleavage specificity” (Institut de Recherches Cliniques de Montreal, priority 1999, dated 2007).
# *1 amine or outer side, *2 acyl side, *3 side chain or, on linkers, in order; H or OH if unused. Where a SMILES comes first, the peptide text is derived from it. [ ]: non-standard residue; d: D form. The star is where a group is joined. Sta = CC(C)C[C@H](N)[C@@H](O)CC(=O)O; Isovaleryl = CC(C)CC(=O)*; CO = O=C([*:1])[*:2]
# Legend:
# BTMD-SKI-1 = biological target: T1, BTMD-SKI-1 (Homo sapiens, UniProt Q14703); assay: biochemical; assay type: biochemical
# T1 sequence (Q14703 187-997 limits assumed): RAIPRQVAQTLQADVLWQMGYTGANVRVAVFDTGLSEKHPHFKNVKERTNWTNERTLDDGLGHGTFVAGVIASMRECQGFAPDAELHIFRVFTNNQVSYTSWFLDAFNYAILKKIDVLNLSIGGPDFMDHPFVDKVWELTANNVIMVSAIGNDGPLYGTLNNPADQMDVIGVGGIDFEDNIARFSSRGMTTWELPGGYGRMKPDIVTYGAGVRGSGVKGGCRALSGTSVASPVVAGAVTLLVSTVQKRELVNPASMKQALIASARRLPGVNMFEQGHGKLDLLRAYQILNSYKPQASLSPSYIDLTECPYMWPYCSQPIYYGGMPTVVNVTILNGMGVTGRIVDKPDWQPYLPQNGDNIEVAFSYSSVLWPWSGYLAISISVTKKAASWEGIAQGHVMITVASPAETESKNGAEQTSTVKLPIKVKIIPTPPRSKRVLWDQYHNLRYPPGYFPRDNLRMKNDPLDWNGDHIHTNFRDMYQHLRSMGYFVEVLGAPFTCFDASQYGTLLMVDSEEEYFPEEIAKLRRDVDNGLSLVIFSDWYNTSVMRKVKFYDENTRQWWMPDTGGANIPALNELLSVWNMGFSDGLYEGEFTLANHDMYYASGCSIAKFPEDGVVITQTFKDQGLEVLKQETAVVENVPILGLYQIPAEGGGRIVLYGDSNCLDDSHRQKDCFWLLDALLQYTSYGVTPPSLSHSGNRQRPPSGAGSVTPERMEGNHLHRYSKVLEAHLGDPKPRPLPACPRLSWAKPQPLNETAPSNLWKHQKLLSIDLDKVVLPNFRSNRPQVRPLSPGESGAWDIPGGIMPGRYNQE
# T1 sequence (Q14703 17-137 partner limits assumed): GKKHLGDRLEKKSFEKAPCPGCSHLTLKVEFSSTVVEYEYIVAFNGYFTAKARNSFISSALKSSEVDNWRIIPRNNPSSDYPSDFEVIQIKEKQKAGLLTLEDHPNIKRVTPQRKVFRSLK
# SKI-1 = biological target: T2, SKI-1 (Homo sapiens, UniProt Q14703); assay type: cell-based; parameters: The VV recombinant of full-length hSKI-1 has been described (10); expressed in transfected cells; host or cells: COS-7 cells co-infected with vv:BDNF and vv:SKI-1 (with vv:WT, vv:PIT or vv:PDX)
# T2 sequence (Q14703 187-1052): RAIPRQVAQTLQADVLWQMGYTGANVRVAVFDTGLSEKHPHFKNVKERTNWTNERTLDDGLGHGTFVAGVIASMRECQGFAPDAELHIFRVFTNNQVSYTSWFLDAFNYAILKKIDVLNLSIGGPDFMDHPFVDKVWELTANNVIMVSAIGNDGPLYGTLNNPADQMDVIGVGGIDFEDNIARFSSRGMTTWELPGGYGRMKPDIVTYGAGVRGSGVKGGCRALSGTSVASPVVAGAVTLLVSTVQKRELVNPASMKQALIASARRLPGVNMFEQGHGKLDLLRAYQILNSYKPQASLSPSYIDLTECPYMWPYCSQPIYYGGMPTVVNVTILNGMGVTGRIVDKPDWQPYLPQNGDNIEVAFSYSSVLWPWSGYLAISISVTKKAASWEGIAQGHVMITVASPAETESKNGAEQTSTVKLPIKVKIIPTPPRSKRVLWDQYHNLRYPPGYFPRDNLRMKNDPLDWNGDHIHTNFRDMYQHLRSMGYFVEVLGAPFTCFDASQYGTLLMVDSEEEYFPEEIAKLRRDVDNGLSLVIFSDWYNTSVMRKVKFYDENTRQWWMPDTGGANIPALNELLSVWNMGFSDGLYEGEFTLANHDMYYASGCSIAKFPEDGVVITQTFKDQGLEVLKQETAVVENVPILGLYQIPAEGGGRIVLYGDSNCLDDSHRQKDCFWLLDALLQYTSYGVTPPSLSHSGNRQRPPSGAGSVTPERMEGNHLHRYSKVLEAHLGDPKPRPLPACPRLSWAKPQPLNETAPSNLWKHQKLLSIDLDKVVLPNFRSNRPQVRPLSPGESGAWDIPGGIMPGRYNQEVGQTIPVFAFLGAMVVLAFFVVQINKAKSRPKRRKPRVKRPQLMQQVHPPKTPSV
# [1] = biological target: T3, peptide X, Q-hSKI-1 (132-142): Abz-VFRSLKYAESD-Y(NO2)-A
# T3 chain: XVFRSLKYAESDXA
# [2] = biological target: T4, peptide XI, Q-hSKI-1 (134-142): Abz-RSLKYAESD-Y(NO2)-A
# T4 chain: XRSLKYAESDXA
# [3] = read-out: Hydrolysis of SREBP-2 peptide (% of control)
molecule,measurement,setting,value
[Cl-].[Cl-].[Co+2] [CoCl2],Hydrolysis of SREBP-2 peptide (% of control),BTMD-SKI-1,100 % of control
cystatin,Hydrolysis of SREBP-2 peptide (% of control),BTMD-SKI-1,100 % of control
"Nc1ccc(CS(=O)(=O)F)cc1 [APMSF, para-aminophenylmethylsulfonyl fluoride]",Hydrolysis of SREBP-2 peptide (% of control),BTMD-SKI-1,95 % of control
CC(C)C[C@H](NC(=O)[C@@H](NC(=O)N[C@@H](Cc1ccccc1)C(=O)O)[C@@H]1CCN=C(N)N1)C(=O)N[C@H](C=O)Cc1ccccc1 [Chymostatin],remaining activity at 1000 µM,BTMD-SKI-1; [3],100%
CC(C)C[C@H](NC(=O)[C@H]1O[C@@H]1C(=O)O)C(=O)NCCCCN=C(N)N [Peptide E-64],Hydrolysis of SREBP-2 peptide (% of control),BTMD-SKI-1,100 % of control
O[C@H](CS)[C@H](O)CS (racemic) [Dithiothreitol],remaining activity at 10000 µM,BTMD-SKI-1; [3],92%
α1-antitrypsin Pittsburgh [α1-PIT],level of the 28 kDa BDNF product,SKI-1,neither α1-PIT nor α1-PDX affect the level of the 28 kDa product
"CC(C)CC(=O)N[C@H](C(=O)N[C@H](C(=O)N[C@@H](CC(C)C)[C@@H](O)CC(=O)N[C@@H](C)C(=O)N[C@@H](CC(C)C)[C@@H](O)CC(=O)O)C(C)C)C(C)C [Pepstatin, pepstatin] (Isovaleryl-VV[Sta]A[Sta]-OH)",remaining activity at 100 µM,BTMD-SKI-1; [3],97%
"CC(C)[C@H](NC(=O)[C@H](CCCNC(=N)N)NC(=O)N[C@@H](Cc1ccccc1)C(=O)O)C(=O)N[C@H](C=O)CCCNC(=N)N [Antipain, antipain] ({Phe-CO}-Arg-Val-Arg-aldehyde)",remaining activity at 1000 µM,BTMD-SKI-1; [3],100%
O=S(=O)([O-])[O-].[Cu+2] [CuSO4],Hydrolysis of SREBP-2 peptide (% of control),BTMD-SKI-1,0 % of control
[Cl-].[Cl-].[Mg+2] [MgCl2],Hydrolysis of SREBP-2 peptide (% of control),BTMD-SKI-1,100 % of control
O=C(O)CN(CCOCCOCCN(CC(=O)O)CC(=O)O)CC(=O)O [EGTA],Hydrolysis of SREBP-2 peptide (% of control),BTMD-SKI-1,15 % of control
Cc1ccc(S(=O)(=O)N[C@@H](Cc2ccccc2)C(=O)CCl)cc1 [TPCK],Hydrolysis of SREBP-2 peptide (% of control),BTMD-SKI-1,71 % of control
Cc1ccc(S(=O)(=O)NC(CCCCN)C(=O)CCl)cc1 (stereo not drawn) [TLCK],Hydrolysis of SREBP-2 peptide (% of control),BTMD-SKI-1,100 % of control
CC(=O)N[C@@H](CC(C)C)C(=O)N[C@@H](CC(C)C)C(=O)N[C@H](C=O)CCCNC(=N)N [Leupeptin],remaining activity at 1000 µM,BTMD-SKI-1; [3],100%
O=S(=O)([O-])[O-].[Zn+2] [ZnSO4],Hydrolysis of SREBP-2 peptide (% of control),BTMD-SKI-1,0 % of control
O=S(=O)([O-])[O-].[Ni+2] [NiSO4],Hydrolysis of SREBP-2 peptide (% of control),BTMD-SKI-1,93 % of control
98 kDa shed form of SKI-1 (sSKI-1) (protein) RAIPRQVAQTLQADVLWQMGYTGANVRVAVFDTGLSEKHPHFKNVKERTNWTNERTLDDGLGHGTFVAGVIASMRECQGFAPDAELHIFRVFTNNQVSYTSWFLDAFNYAILKKIDVLNLSIGGPDFMDHPFVDKVWELTANNVIMVSAIGNDGPLYGTLNNPADQMDVIGVGGIDFEDNIARFSSRGMTTWELPGGYGRMKPDIVTYGAGVRGSGVKGGCRALSGTSVASPVVAGAVTLLVSTVQKRELVNPASMKQALIASARRLPGVNMFEQGHGKLDLLRAYQILNSYKPQASLSPSYIDLTECPYMWPYCSQPIYYGGMPTVVNVTILNGMGVTGRIVDKPDWQPYLPQNGDNIEVAFSYSSVLWPWSGYLAISISVTKKAASWEGIAQGHVMITVASPAETESKNGAEQTSTVKLPIKVKIIPTPPRSKRVLWDQYHNLRYPPGYFPRDNLRMKNDPLDWNGDHIHTNFRDMYQHLRSMGYFVEVLGAPFTCFDASQYGTLLMVDSEEEYFPEEIAKLRRDVDNGLSLVIFSDWYNTSVMRKVKFYDENTRQWWMPDTGGANIPALNELLSVWNMGFSDGLYEGEFTLANHDMYYASGCSIAKFPEDGVVITQTFKDQGLEVLKQETAVVENVPILGLYQIPAEGGGRIVLYGDSNCLDDSHRQKDCFWLLDALLQYTSYGVTPPSLSHSGNRQRPPSGAGSVTPERMEGNHLHRYSKVLEAHLGDPKPRPLPACPRLSWAKPQPLNETAPSNLWKHQKLLSIDLDKVVLPNFRSNRPQVRPLSPGESGAWDIPGGIMPGRYNQ,Km(app),[1],31.3 µM
same,Vmax(app),[1],34 µmol/h
same,Vmax(app)/Km(app),[1],1.1 h^-1L^-1
same,cleavage of quenched fluorogenic peptide (mass spectrometry),[1],"both peptides were cleaved at the RSLK↓ (SEQ. ID. NO. 100) site by shed SKI-1 derived from HK293 cell transfects, but not by medium obtained from HK293 empty vector transfectants"
same,Km(app),[2],8.7 µM
same,Vmax(app),[2],56.9 µmol/h
same,Vmax(app)/Km(app),[2],6.5 h^-1L^-1
same,cleavage of quenched fluorogenic peptide (mass spectrometry),[2],"both peptides were cleaved at the RSLK↓ (SEQ. ID. NO. 100) site by shed SKI-1 derived from HK293 cell transfects, but not by medium obtained from HK293 empty vector transfectants"
"proBDNF: 32 kDa human pro-brain-derived neurotrophic factor, precursor substrate (protein, UniProt P23560 19-247, looked up, pro-form, 32 kDa human pro-brain-derived neurotrophic factor, precursor substrate) pro-form: APMKEANIRGQGGLAYPGVRTHGTLESVNGPKAGSRGLTSLADTFEHVIEELLDEDQKVRPNEENNKDADLYTSRVMLSSQVPLEPPLLFLLEEYKNYLDAANMSMRVRRHSDPARRGELSVCDSISEWVTAADKKTAVDMSGGTVTVLEKVPVSKGQLKQYFYETKCNPMGYTKEGCRGIDKRHWNSQCRTTQSYVRALTMDSKKRIGWRFIRIDTSCVCTLTIKRGR",intracellular cleavage of precursor by SKI-1,SKI-1,could be cleaved intracellularly by SKI-1
"soya bean trypsin inhibitor (protein, UniProt P01070 25-205, looked up) Trypsin inhibitor A: DFVLDNEGNPLENGGTYYILSDITAFGGIRAAPTGNERCPLTVVQSRNELDKGIGTIISSPYRIRFIAEGHPLSLKFDSFAVIMLCVGIPTEWSVVEDLPEGPAVKIGENKDAMDGWFRLERVSDDEFNNYKLVFCPQQAEDDKCGDIGISIDHDDGTRRLVVSKNKPLVVQFQKLDKESL",Hydrolysis of SREBP-2 peptide (% of control),BTMD-SKI-1,100 % of control
